From patent US20160120915A1, “METHODS FOR MANIPULATING IMMUNE RESPONSES BY ALTERING MICROBIOTA” (NEW YORK UNIVERSITY, priority 2013, published 2016) come the findings set out here.

Structures are written as SMILES. Where a name gives a salt, the structure may show the parent alone.

Assay [1] deals with 547 genes related to immunology in ileal tissue. Description: Ileal gene expression profiling via Nanostring Immunology Panel, STAT. The format is in vivo, C57BL6J mice. Particulars: for Significant Changes Down (ileal Nanostring) / Significant Changes Total (ileal Nanostring) / Significant Changes Up (ileal Nanostring): 8-week old mice. How it is done:
RNA was extracted from ileal tissue using the miRNeasy mini kit (Qiagen, Redwood City, Calif., USA) at 8 weeks of age and the expression levels of 547 genes related to immunology were measured by nCounter GX Mouse Immunology Kit (Nanostring Technologies, Seattle, Wash., USA). Significant differences between treatment and control were determined by t-test. For functional characterization, the significant changes were analyzed by Ingenuity Pathway Analysis (Qiagen, Redwood City, Calif.).
Specifically, STAT decreased 111 and 74 genes and increased only 1 and 7 genes in male and female mice, respectively, with numerous consistencies across gender (FIG. 10A-C and Table 2).

Another assay relates to ileal tissue. The assay is described as follows: TimeSTAT: expression of immunological markers in ileal tissue by qPCR. Particulars: 20 weeks of age. It is filed as in vivo, C57BL/6J mice. An excerpt: C57BL/6J (Jackson Labs, Bar Harbor, Me.) mice either received no antibiotics (control, females n=5, males n=5) or continuous STAT penicillin starting at birth (STATb, females n=4, males n=5), or at weaning at 4 weeks (STATw, females n=5, males n=5). Mice were weaned at 4 weeks onto normal chow (13.2% fat, 5053 PicoLab Rodent Diet 20, LabDiet, Brentwood, Mo.).
Both STATw and STATb remained on lifelong STAT after initial exposure. Mice were sacrificed at 20 weeks of age. The terminal[1 cm] ileum without Peyer's Patches [TI-] was collected for gene expression analysis by qPCR.
Total RNA was extracted from mouse tissues using the RNeasy Mini Kit (Qiagen), according to the manufacturer's instructions. Total RNA was reverse transcribed to cDNA using the Verso™ cDNA Synthesis Kit (Thermo Scientific). To generate standards for expression analysis of each target gene, the cDNA region of interest was PCR-amplified and the PCR product was cloned into pGEM-T easy (Promega). qPCR was performed with LightCycler 480 SYBR Green I Master mix (Roche) and run in a LightCycler 480 system (Roche). Target mRNA was normalized to GAPDH mRNA as an internal control in each sample.
Both STATw and STATb remained on lifelong STAT after initial exposure. Expression of immunological markers in ileal tissue was measured by qPCP at 20 weeks of age in both female and male mice.
(Real-time PCR tracks product formation cycle by cycle.)

In the next assay the test system is terminal ileum. The assay is described as follows: PAT: ileal gene expression profiling by whole genome microarray, 6-week mice. Particulars: 6-week PAT vs Control, T-test p<0.05 and fold change ≧1.2 or ≦0.8. The format is in vivo, C57BL/6 mice. The method, then:
Ileal gene expression profiling of STAT, PAT, and control animal groups, was performed using the Affymetrix Genechip system (Affymetrix). Total RNA quality and quantity were determined using the Agilent 2100 Bioanalyser and Nanodrop ND-1000. Total RNA (100 ng) was used to prepare cDNA following the Affymetrix […] Express Kit labelling protocol (Affymetrix). Standardized array processing procedures recommended by Affymetrix were performed, including hybridization, fluidics processing and scanning of the Affymetrix MG-430 2.0 arrays. GeneSpring GX11 software (Agilent Technologies) was used to normalize the raw data (Affymetrix CEL files) by Robust Multichip Average algorithm (RMA).
1127 and 3065 reproducibly regulated genes were identified from ˜45,000 genes of the mouse genome by T-test (p<0.05) and fold change (≧1.2 or ≦0.8) in 6-week PAT (Panel A; Control vs Amoxicillin and Panel B; Control vs Tylosin), respectively (FIG. 22). DAVID analysis was performed using the regulated genes, and Gene Set Enrichment analysis (GSEA) was performed using whole gene data.
(C, n=3), amoxicillin (A, n=3), and tylosin treated mice (T, n=3).

In the case of `CC1(C)S[C@@H]2[C@H](NC(=O)COc3ccccc3)C(=O)N2[C@H]1C(=O)[O-].[K+]` [STAT, penicillin VK], in assay [1] (STAT-Female vs control), the “Significant Changes Down (ileal Nanostring)” value came to 74, the “Significant Changes Total (ileal Nanostring)” value amounted to 81 and the “Significant Changes Up (ileal Nanostring)” value stood at 7. For the same molecule, in assay [1] (STAT-Male vs control), the “Significant Changes Down (ileal Nanostring)” value stood at 111 and the “Significant Changes Total (ileal Nanostring)” value was 112. Also, the “Significant Changes Up (ileal Nanostring)” value in assay [1] (STAT-Male vs control, n=4 per group, t-test <0.05) was 1. For the same molecule, in assay [1] (Shared: STAT-F + Recip-F), the “Significant Changes Down, shared” value is given as 1; the “Significant Changes Total, shared” value stood at 1; the “Significant Changes Up, shared” value is 0. Further, in assay [1] (Shared: STAT-M + Recip-F), the “Significant Changes Down, shared” value is 3; the “Significant Changes Total, shared” value came out at 3; the “Significant Changes Up, shared” value turned out to be 0. In assay [1] (Shared: STAT-M + STAT-F), the “Significant Changes Down, shared” value stood at 37; the “Significant Changes Total, shared” value was 37; the “Significant Changes Up, shared” value is given as 0. Besides, in the assay with ileal tissue (female mice, STAT from weaning or birth vs control), the “ileal expression of Th17 transcription factor (RORγT)” value was “significant reductions”. Moreover, in the assay on ileal tissue (female mice, STAT vs control), the “ileal expression of J-chain” value is recorded as “significant reductions”, the “ileal expression of Reg3γ” value was “significant reductions”, the “ileal expression of SAA1/SAA2” value was “significant reductions” and the “ileal expression of SSA3” value is reported as “significant reductions”. In the assay on ileal tissue (female mice, STAT vs control), the “ileal expression of cytokine” value is “significant reductions”, the “ileal expression of cytokine TH-17A” value is on record as “significant reductions”, the “ileal expression of defensin β1 (Defb1)” value is listed as “significant reductions” and the “ileal expression of polymeric Ig receptor (pIgR)” value is reported as “significant reductions”. For the same molecule, in the assay with ileal tissue (male mice, STAT vs control), the “ileal expression of J-chain” value is recorded as “lacked differences”, the “ileal expression of RORγt” value is on record as “lacked differences” and the “ileal expression of pIgR” value is given as “lacked differences”.
In the case of `CC[C@H]1OC(=O)C[C@@H](O)[C@H](C)[C@@H](O[C@@H]2O[C@H](C)[C@@H](O[C@H]3C[C@@](C)(O)[C@@H](O)[C@H](C)O3)[C@H](N(C)C)[C@H]2O)[C@@H](CC=O)C[C@@H](C)C(=O)/C=C/C(C)=C/[C@@H]1CO[C@@H]1O[C@H](C)[C@@H](O)[C@@H](OC)[C@H]1OC` [Tylosin, Tylosin tartrate], in the assay with terminal ileum, the “reproducibly regulated genes out of ~45,000 genes of the mouse genome” value amounted to 3065.
